Common to all, as to test: relative viability (nuclei count vs DMSO), 5 days (fraction); higher = more cells survive
Compound in the assay “JZL-184 + Palbociclib”: C1CN(CCC1C(C2=CC3=C(C=C2)OCO3)(C4=CC5=C(C=C4)OCO5)O)C(=O)OC6=CC=C(C=C6)[N+](=O)[O-] [JZL-184] + CC(=O)c1c(C)c2cnc(Nc3ccc(N4CCNCC4)cn3)nc2n(C2CCCC2)c1=O [Palbociclib] (partner 0.5 µM)
In short, it runs like this:
(§1)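 Each reported value is a median over duplicate plates. It expresses relative viability: treated-well nuclei count divided by vehicle-well nuclei count. Lung cancer cell lines in 1536-well plates were dosed by pin tool a day after seeding, alone with one drug or with a fixed anchor-drug dose plus five library-drug doses (not always all listed) in √10 steps, and nuclei were counted after 5 days.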

Compound in the assay “JZL-184 + Linsitinib”: C1CN(CCC1C(C2=CC3=C(C=C2)OCO3)(C4=CC5=C(C=C4)OCO5)O)C(=O)OC6=CC=C(C=C6)[N+](=O)[O-] [JZL-184] + C[C@]1(O)C[C@@H](c2nc(-c3ccc4ccc(-c5ccccc5)nc4c3)c3c(N)nccn32)C1 [Linsitinib] (partner 1 µM)
The gist of the method: as §1

Compound in the assay “JZL-184 + AZD7762”: C1CN(CCC1C(C2=CC3=C(C=C2)OCO3)(C4=CC5=C(C=C4)OCO5)O)C(=O)OC6=CC=C(C=C6)[N+](=O)[O-] [JZL-184] + NC(=O)Nc1cc(-c2cccc(F)c2)sc1C(=O)N[C@H]1CCCNC1 [AZD7762] (partner 0.2 µM)
In short, it runs like this:
as §1

Compound in the assay “JZL-184 + Olaparib”: C1CN(CCC1C(C2=CC3=C(C=C2)OCO3)(C4=CC5=C(C=C4)OCO5)O)C(=O)OC6=CC=C(C=C6)[N+](=O)[O-] [JZL-184] + O=C(c1cc(Cc2n[nH]c(=O)c3ccccc23)ccc1F)N1CCN(C(=O)C2CC2)CC1 [Olaparib] (partner 8 µM)
The gist of the method:
as §1

Compound in the assay “JZL-184 + Luminespib”: C1CN(CCC1C(C2=CC3=C(C=C2)OCO3)(C4=CC5=C(C=C4)OCO5)O)C(=O)OC6=CC=C(C=C6)[N+](=O)[O-] [JZL-184] + CCNC(=O)c1noc(-c2cc(C(C)C)c(O)cc2O)c1-c1ccc(CN2CCOCC2)cc1 [Luminespib] (partner 0.01 µM)
The gist of the method:
as §1

As to NCI-H2347, the relative viability with JZL-184 + Palbociclib (first compound 0.4 µM) amounted to 0.398; with JZL-184 + Palbociclib (first compound 1.265 µM), 0.407; with JZL-184 + Palbociclib (first compound 4 µM), 0.443; in the assay with JZL-184 + Linsitinib (first compound 0.04 µM) it was 0.98; with JZL-184 + Linsitinib (first compound 0.4 µM) it was 0.953; with JZL-184 + Linsitinib (first compound 1.265 µM), 0.926. The relative viability with JZL-184 + Linsitinib (first compound 4 µM) was 0.946; with JZL-184 + AZD7762 (first compound 0.4 µM) it was 0.758; with JZL-184 + AZD7762 (first compound 1.265 µM), 0.82; with JZL-184 + AZD7762 (first compound 4 µM), 0.703; in the assay with JZL-184 + Olaparib (first compound 0.4 µM), 0.577; with JZL-184 + Olaparib (first compound 1.265 µM), 0.586. The relative viability was 0.53 in the assay with JZL-184 + Olaparib (first compound 4 µM); 0.321 in the assay with JZL-184 + Luminespib (first compound 0.04 µM); 0.553 in the assay with JZL-184 + Luminespib (first compound 0.4 µM); 0.497 in the assay with JZL-184 + Luminespib (first compound 1.265 µM); 0.587 with JZL-184 + Luminespib (first compound 4 µM).
In the case of NCI-H2405, the relative viability with JZL-184 + Palbociclib (first compound 0.04 µM) was 0.594; in the assay with JZL-184 + Palbociclib (first compound 0.4 µM), 0.409; with JZL-184 + Palbociclib (first compound 1.265 µM) it was 0.541; with JZL-184 + Palbociclib (first compound 4 µM), 0.489; in the assay with JZL-184 + Linsitinib (first compound 0.04 µM) it was 0.806; with JZL-184 + Linsitinib (first compound 0.4 µM) it was 0.895. Also, the relative viability in the assay with JZL-184 + Linsitinib (first compound 1.265 µM) was 1.09; with JZL-184 + Linsitinib (first compound 4 µM), 0.986; with JZL-184 + AZD7762 (first compound 0.04 µM), 0.786; with JZL-184 + AZD7762 (first compound 0.4 µM) it was 0.533; in the assay with JZL-184 + AZD7762 (first compound 1.265 µM) it was 0.797; with JZL-184 + AZD7762 (first compound 4 µM), 0.663. Also, the relative viability came out at 0.974 in the assay with JZL-184 + Olaparib (first compound 0.04 µM); 0.901 in the assay with JZL-184 + Olaparib (first compound 0.4 µM); 0.836 with JZL-184 + Olaparib (first compound 1.265 µM); 0.855 in the assay with JZL-184 + Olaparib (first compound 4 µM); 0.598 with JZL-184 + Luminespib (first compound 0.04 µM); 0.764 with JZL-184 + Luminespib (first compound 0.4 µM). The values for the relative viability with JZL-184 + Luminespib (first compound 1.265 µM) and in the assay with JZL-184 + Luminespib (first compound 4 µM) were 0.796 and 0.734, respectively.
Regarding NCI-H3122, the relative viability in the assay with JZL-184 + Palbociclib (first compound 0.04 µM) was 0.168; with JZL-184 + Palbociclib (first compound 0.4 µM), 0.181; in the assay with JZL-184 + Palbociclib (first compound 1.265 µM) it was 0.22; with JZL-184 + Palbociclib (first compound 4 µM) it was 0.208; in the assay with JZL-184 + Linsitinib (first compound 0.04 µM), 1.03; with JZL-184 + Linsitinib (first compound 0.4 µM), 0.949. In addition, the relative viability with JZL-184 + Linsitinib (first compound 1.265 µM) came out at 1.03; in the assay with JZL-184 + Linsitinib (first compound 4 µM), 0.971; with JZL-184 + AZD7762 (first compound 0.04 µM), 1.05; in the assay with JZL-184 + AZD7762 (first compound 0.4 µM), 0.866; in the assay with JZL-184 + AZD7762 (first compound 1.265 µM), 0.99; in the assay with JZL-184 + AZD7762 (first compound 4 µM), 1.02. The relative viability in the assay with JZL-184 + Olaparib (first compound 0.04 µM) amounted to 0.571; with JZL-184 + Olaparib (first compound 0.4 µM), 0.55; in the assay with JZL-184 + Olaparib (first compound 1.265 µM) it was 0.667; with JZL-184 + Olaparib (first compound 4 µM), 0.598; with JZL-184 + Luminespib (first compound 0.04 µM) it was 0.0989; in the assay with JZL-184 + Luminespib (first compound 0.4 µM) it was 0.0869. Moreover, the relative viability with JZL-184 + Luminespib (first compound 1.265 µM) was 0.0901; in the assay with JZL-184 + Luminespib (first compound 4 µM), 0.11.
As to PC-3 [JPC-3], the relative viability in the assay with JZL-184 + Palbociclib (first compound 0.04 µM) is 0.573; with JZL-184 + Palbociclib (first compound 0.4 µM) it was 0.558; in the assay with JZL-184 + Palbociclib (first compound 1.265 µM), 0.485; with JZL-184 + Palbociclib (first compound 4 µM) it was 0.536; in the assay with JZL-184 + Linsitinib (first compound 0.04 µM), 0.955; in the assay with JZL-184 + Linsitinib (first compound 0.4 µM), 0.936. For the same cell line, the relative viability with JZL-184 + Linsitinib (first compound 1.265 µM) is 0.973; with JZL-184 + Linsitinib (first compound 4 µM), 0.905; with JZL-184 + AZD7762 (first compound 0.04 µM) it was 0.773; in the assay with JZL-184 + AZD7762 (first compound 0.4 µM) it was 0.71; with JZL-184 + AZD7762 (first compound 1.265 µM) it was 0.94; with JZL-184 + AZD7762 (first compound 4 µM), 0.8. Moreover, the relative viability with JZL-184 + Olaparib (first compound 0.04 µM) stood at 1.14; in the assay with JZL-184 + Olaparib (first compound 0.4 µM) it was 1.04; with JZL-184 + Olaparib (first compound 1.265 µM), 1.21; with JZL-184 + Olaparib (first compound 4 µM), 1.15; with JZL-184 + Luminespib (first compound 0.04 µM) it was 0.793; with JZL-184 + Luminespib (first compound 0.4 µM) it was 0.721. The relative viability amounted to 0.811 with JZL-184 + Luminespib (first compound 1.265 µM) and 0.615 with JZL-184 + Luminespib (first compound 4 µM).
PC-14: the relative viability with JZL-184 + Palbociclib (first compound 0.04 µM) is 0.659; with JZL-184 + Palbociclib (first compound 0.4 µM), 0.49; with JZL-184 + Palbociclib (first compound 1.265 µM), 0.517; in the assay with JZL-184 + Palbociclib (first compound 4 µM) it was 0.519; with JZL-184 + Linsitinib (first compound 0.04 µM) it was 1.05; in the assay with JZL-184 + Linsitinib (first compound 0.4 µM) it was 0.965. The relative viability was 0.95 in the assay with JZL-184 + Linsitinib (first compound 1.265 µM); 0.942 with JZL-184 + Linsitinib (first compound 4 µM); 0.391 in the assay with JZL-184 + AZD7762 (first compound 0.04 µM); 0.337 in the assay with JZL-184 + AZD7762 (first compound 0.4 µM); 0.387 in the assay with JZL-184 + AZD7762 (first compound 1.265 µM); 0.321 in the assay with JZL-184 + AZD7762 (first compound 4 µM). The relative viability is 0.251 with JZL-184 + Olaparib (first compound 0.04 µM); 0.223 with JZL-184 + Olaparib (first compound 0.4 µM); 0.233 in the assay with JZL-184 + Olaparib (first compound 1.265 µM); 0.219 with JZL-184 + Olaparib (first compound 4 µM); 0.119 with JZL-184 + Luminespib (first compound 0.04 µM); 0.137 in the assay with JZL-184 + Luminespib (first compound 0.4 µM). For the same cell line, the relative viability was 0.146 in the assay with JZL-184 + Luminespib (first compound 1.265 µM) and 0.287 with JZL-184 + Luminespib (first compound 4 µM).
Turning to RERF-LC-KJ, the relative viability with JZL-184 + Palbociclib (first compound 0.04 µM) worked out at 1.17; with JZL-184 + Palbociclib (first compound 0.4 µM), 1.14; with JZL-184 + Palbociclib (first compound 1.265 µM), 1.17; with JZL-184 + Palbociclib (first compound 4 µM), 0.982; with JZL-184 + Linsitinib (first compound 0.04 µM) it was 0.874; with JZL-184 + Linsitinib (first compound 0.4 µM), 0.854. Further, the relative viability with JZL-184 + Linsitinib (first compound 1.265 µM) came to 0.867; with JZL-184 + Linsitinib (first compound 4 µM), 0.873; with JZL-184 + AZD7762 (first compound 0.04 µM), 1.11; with JZL-184 + AZD7762 (first compound 0.4 µM), 0.963; with JZL-184 + AZD7762 (first compound 1.265 µM), 0.895; in the assay with JZL-184 + AZD7762 (first compound 4 µM) it was 1. Further, the relative viability in the assay with JZL-184 + Olaparib (first compound 0.04 µM) worked out at 0.976; with JZL-184 + Olaparib (first compound 0.4 µM), 0.911; with JZL-184 + Olaparib (first compound 1.265 µM), 0.895; with JZL-184 + Olaparib (first compound 4 µM), 0.905; in the assay with JZL-184 + Luminespib (first compound 0.04 µM), 1.34; with JZL-184 + Luminespib (first compound 0.4 µM), 1.37. Besides, the relative viability with JZL-184 + Luminespib (first compound 1.265 µM) worked out at 1.31; with JZL-184 + Luminespib (first compound 4 µM), 1.2.

(Values after the supplement of paper PMC10307832.)
